Target: T1, recombinant BOD (bilirubin oxidase) derived from Myrothecium verrucaria MT-1 (Albifimbria verrucaria, UniProt Q12737)
T1 construct: made in house; host or cells: Aspergillus sp
T1 sequence (Q12737 39-572): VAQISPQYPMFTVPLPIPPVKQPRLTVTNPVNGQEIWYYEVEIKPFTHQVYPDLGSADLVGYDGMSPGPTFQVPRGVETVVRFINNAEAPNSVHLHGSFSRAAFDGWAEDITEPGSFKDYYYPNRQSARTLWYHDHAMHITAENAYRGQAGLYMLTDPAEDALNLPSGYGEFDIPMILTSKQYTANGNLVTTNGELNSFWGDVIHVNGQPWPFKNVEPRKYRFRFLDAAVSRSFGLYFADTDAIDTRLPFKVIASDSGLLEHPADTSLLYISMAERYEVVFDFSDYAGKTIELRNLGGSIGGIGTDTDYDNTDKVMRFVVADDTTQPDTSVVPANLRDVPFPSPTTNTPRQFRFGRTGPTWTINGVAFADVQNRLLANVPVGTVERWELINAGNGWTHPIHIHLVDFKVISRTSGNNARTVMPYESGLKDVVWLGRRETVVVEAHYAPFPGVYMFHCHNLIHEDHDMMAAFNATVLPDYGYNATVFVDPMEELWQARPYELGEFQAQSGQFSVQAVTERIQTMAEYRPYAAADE
Assay: BOD activity after leaving the BOD solution with an activity improving agent or comparative substance at 30° C. in a deoxygenated atmosphere (Test Example 1)
Format: biochemical
Details: relative to Day 0, additive concentration as in Table 1; for Activity (%) Day 47: left 47 days at 30° C.
Method: A BOD solution, which contains: a BOD; and the present activity improving agent or a comparative substance, was left in an environment at a temperature of 30° C. in a deoxygenated atmosphere for a certain period of time. After the BOD solution was left as above, improvement of the BOD activity by the present activity improving method was evaluated by measurement of the BOD activity.
In Test Example 1, a BOD gene derived from a Myrothecium verrucaria MT-1 (GenBank accession number: D12579.1) was introduced into an Aspergillus sp., and then a recombinant BOD (hereinafter, also referred to simply as “BOD”) expressed in the Aspergillus sp. was purified by using a well-known technique and then used as the BOD. The BOD gene derived from the Myrothecium verrucaria MT-1 was codon-optimized in accordance with a gene sequence of the Aspergillus sp., and then introduced into the Aspergillus sp. Further, the BOD thus purified was dissolved in a 50 mM glycine-KOH (pH 8.5) buffer so that the concentration of the BOD became 1.0 mg/mL. Then, a resultant solution was used as a BOD enzyme solution.
The enzymatic activity of the BOD was measured as follows. To 1780 μL of a 50 mM potassium phosphate buffer (pH 6.5), 200 μL of a 20 mM ABTS substrate solution was added, so that a mixed solution (1980 μL) was prepared. This mixed solution was incubated for 1 min at 37° C. Thereafter, 20 μL of a solution containing the BOD (specifically, a BOD solution for evaluation, which will be described later) was added to the mixed solution, and a resultant mixed solution (2 mL) was incubated at 37° C. While the mixed solution was incubated, the absorbance of the mixed solution at a wavelength of 436 nm was measured immediately after that addition of the BOD solution for evaluation (at 0 seconds) and thereafter every 20 seconds. On the basis of (i) the absorbance of the mixed solution at a wavelength of 436 nm immediately after the addition of the BOD solution for evaluation and (ii) the absorbance of the mixed solution at a wavelength of 436 nm after a lapse of 1 minute from the addition of the BOD solution for evaluation, calculation was carried out for obtaining an increase rate per minute of the absorbance of the mixed solution at a wavelength of 436 nm after the addition of the BOD solution for evaluation. The BOD activity (unit) in the BOD solution for evaluation was calculated from the increase rate. In the present specification, the amount of enzyme for oxidizing 1 μmol of ABTS per minute was defined as one unit.
A specific test method of Test Example 1 is as follows. To a BOD enzyme solution containing a BOD, one of the above-described present activity improving agents was added, so that a BOD solution (which is the BOD solution according to an embodiment of the present invention) was prepared. Further, one of the above-described comparative substances was added to the BOD enzyme solution, so that another BOD solution was prepared. In addition, still another BOD solution was prepared by adding, to the BOD enzyme solution, distilled water in place of the activity improving agent or the comparative substance, so that a control (denoted as Without additive in Tables 1 to 3) was prepared. The final concentration of the activity improving agent or the comparative substance in each of the above BOD solutions was shown in “mM” or “percentage (%)” (amount (g) of the activity improving agent or the comparative substance relative to 100 mL of the BOD solution) in Table 1.
Thereafter, one of these BOD solutions and a deoxygenating agent (Anaero Pack manufactured by Mitsubishi Gas Chemical Company, Inc.) were included in one container. Then, the container was sealed, so that a BOD container was prepared. The BOD container was left in an environment at a temperature of 30° C. in a deoxygenated atmosphere for 47 days (Table 2) or 14 days (Table 3). […]

Structure (SMILES)	Activity (%) Day 14 (left 14 days at 30° C.)	Activity (%) Day 47
O=c1[nH]c(=O)c2[nH]c(=O)[nH]c2[nH]1 [Uric acid, uric acid]	156%	155%
O=C1O[C@H]([C@@H](O)CO)C(O)=C1O [L-ascorbic acid]		151%

Reference: US20220017877A1, “BILIRUBIN OXIDASE ACTIVITY IMPROVING METHOD, AND BILIRUBIN OXIDASE PRODUCT” (OZEKI CORPORATION, priority 2018, published 2022)
